Data from US8895032B2, “Dendritic nano-antioxidants” (Central Michigan University, priority 2009, dated 2014).
Where “and” joins values, the source holds several entries; their conditions need not be identical. Equal entries are not always repeated.

Columns and labels:
[1] = DPPH radical assay
Experimental: The DPPH assay was one of three electron transfer (ET) assays used to determine the antioxidant potential of compound 1 (described in Example 6) in comparison to its monomeric counterpart (syringaldehyde) as well as popular antioxidants. In an ET assay, an antioxidant donates electron(s) to a molecular probe, thus reducing it. From the assay, thermodynamic conversion of antioxidant to antioxidant radical (oxidation) is measured during a fixed time period.
The reduction of DPPH radical was determined for ascorbic acid, Trolox, syringaldehyde, and the compound 1 described in Example 6 as previously reported (Brand-Williams, et al. Lebensm.-Wiss U.-Technol. 1995, 28, 25-30, incorporated herein by reference in its entirety). In the DPPH assay, DPPH• radical was reduced by the antioxidant in methanol (Brand-Williams, et al. Lebensm.-Wiss U.-Technol. 1995, 28, 25-30, incorporated herein by reference in its entirety). […] The DPPH reagent was made in methanol. Antioxidant sample (10 μL) was added to 1.0 mL of reagent and the absorbance was monitored at 515 nm until a plateau was reached. Antioxidant concentrations were 50 μM syringaldehyde, 12.5 μM Trolox and ascorbic acid, and 5 μM compound 1. All samples were made in methanol and run in triplicates at room temperature.
The DPPH• scavenging capacity of each antioxidant was evaluated from the plot of the percentage DPPH• remaining when the kinetics reached a steady state as a function of the molar ratios of antioxidant to DPPH•. […] Using the curve, EC50 (the amount of antioxidant necessary to decrease the initial DPPH• concentration by 50%), antiradical power (1/EC50, ability to reduce the DPPH•), reaction stoichiometry (EC50×2, the concentration of antioxidant required to reduce 100% of DPPH• radical), and the number of reduced DPPH• per antioxidant molecule (1/stoichiometry) for each antioxidant were calculated as previously described (Brand-Williams, et al. Lebensm.-Wiss U.-Technol. 1995, 28, 25-30, incorporated herein by reference in its entirety) and are depicted in Table 1.
Antioxidant capacity of the compounds was assessed by the DPPH assay (Brand-Williams, et al. Lebensm. Wiss. Technol. 1995, 28, 25, incorporated herein by reference in its entirety). […] In FIG. 22, control with methanol is (X, dashed); compound 1 is (□), compound 2 is (•), compound 3 is (◯), and Trolox (Δ). All antioxidant concentrations were 5 μM.
The free-radical scavenging ability of the antioxidants was evaluated by the DPPH assay, as described above in Example 7.

[2] = beta-carotene-linoleate assay; format: biochemical; conditions: for % A470 nm: 12 μM, after 180 min incubation at 50° C.; for protection of linoleic acid from oxidation: 50° C., 180 min, 470 nm
Excerpt: The ability of the dendritic antioxidants 1, 2, and 3 to protect linoleic acid against free radical damage was examined by the beta-carotene-linoleate model (Jayaprakasha, G. K., et al. Food Chem. 2001, 73, 285, incorporated herein by reference in its entirety). In the absence of an antioxidant, hydroperoxides formed from linoleic acid oxidation bleach the highly unsaturated beta-carotene by a free-radical-mediated phenomenon. The bleaching of the reddish-orange color of beta-carotene was monitored at 470 nm in the presence of various concentrations of antioxidant. The % absorbance (corrected for control without antioxidant) was determined at each antioxidant concentration after incubation at 50° C. for 180 min. The % A470 nm values were determined as follows: % A470 nm=[(At(180 min)/At(0 min))×100]−[(Ac(180 min)/Ac(0 min))×100], wherein At(180 min)=absorbance at 470 nm of antioxidant sample incubated at 50° C. for 180 min, At(0 min)=absorbance at 470 nm of antioxidant sample incubated at 50° C. for 0 min, Ac(180 min)=absorbance at 470 nm of control sample (without antioxidant) incubated at 50° C. for 180 min, and Ac(0 min)=absorbance at 470 nm of control sample (without antioxidant) incubated at 50° C. for 0 min. […] In FIG. 24, protection of linoleic acid from oxidation by various antioxidants is shown for compound 1 (□), compounds 2 and 3 (•), quercetin (x), and Trolox (Δ).

[3] = tested on: plasmid DNA pBR 322; assay: Protection of plasmid DNA from AAPH damage (agarose electrophoresis); format: biochemical; conditions: 10 mM AAPH, 37° C., 4 h
Experimental: The effectiveness of the three compounds to protect DNA from AAPH damage was also determined. The plasmid DNA pBR 322 was incubated with AAPH (final concentration 10 mM) at 37° C. for 4 h with or without antioxidants (final concentrations, 0.35-45 μM), after which the samples were subjected to agarose electrophoresis (Sakihama, Y., et al. Toxicology 2002, 177, 67, incorporated herein by reference in its entirety). […] In the absence of AAPH, pBR 322 was mostly in its supercoiled (S) form (small amount of open circular, O, form was also visible, lane 1 FIG. 25). After reaction with AAPH, the DNA was transformed almost entirely into its open circular form (lane 2, FIG. 25). […] No protection was obtained for both compound 1 and quercetin below 5 μM (lanes 7-10, FIG. 25). […] Compound 3 as well as Trolox were ineffective at all concentrations used in the experiment (0.35-45 μM).
Protection of DNA from free radical damage by the antioxidant dendrimers (compounds 4, 5, and 1) was also evaluated. Plasmid DNA (pBR 322) samples, were incubated with AAPH (final concentration 10 mM) at 37° C. for 4 h with antioxidants (final concentrations, 0.35-45 μM) and subjected to agarose electrophoresis. […] The native DNA was mostly in its supercoiled (S) form (small amount of open circular, O, form was also visible, lane 1, FIG. 31). In the presence of AAPH, the DNA was transformed almost entirely into its O form (lane 2, FIG. 31). […] Negligible DNA protection was afforded by all three dendrimers at ≦2.5 μM (lanes 7-10, FIG. 31). Under similar conditions, Trolox as well as the starting materials for dendrimer synthesis were ineffective at all concentrations.

[4] = tested on: Human LDL; assay: Protection of LDL from AAPH oxidation (agarose gel electrophoresis); format: biochemical; conditions: 10 mM AAPH, 18 h, 37° C.
Excerpt: The antioxidant activity of compounds 1, 2, and 3 towards biomolecules was examined by studying their ability to protect LDL, fatty acid, and DNA from free radicals. For LDL, AAPH was used to induce free radical damage. AAPH was used instead of copper (Cu^2) ion for LDL oxidation so that the free radical scavenging activity of the antioxidants could be measured without any pro-oxidant interference caused by metal ions (Salah, N. et al. Arch. Biochem. Biophys. 1995, 322, 339, incorporated herein by reference in its entirety). All solutions were made in ultra-pure water.
Protection of LDL from AAPH free radicals by the antioxidant decreased the anodic shift in a dose-dependent manner (FIG. 23). […] The increased hydrophobicity of compound 3 may be partly responsible for its improved LDL protection over compound 2.
The antioxidant activity of the antioxidants towards biomolecules was examined by studying their ability to protect LDL, lysozyme, and DNA from free radicals. For LDL, AAPH was used to induce free radical damage. AAPH was used instead of Cu^2+ for LDL oxidation so that the free radical scavenging activity of the antioxidants could be measured without any pro-oxidant interference caused by metal ions. The oxidation of human low-density lipoprotein was used as a model for evaluating the ability of the G1 dendrimers as chain-breaking antioxidants for lipid. Oxidation of LDL leads to changes in both the lipid and the protein moieties of the lipoprotein particle. Lipid peroxidation in LDL has been evaluated by a variety of methods. Due to the complexity of events that occur in lipoprotein oxidation, the electrophoretic migration pattern of oxidized LDL is one of the best methods to evaluate the extent of lipoprotein oxidation. LDL was incubated with 20 mM AAPH and increasing concentrations of the G1 dendrimers (0-37 μM in PBS) for 21 h at 37° C. The mixture was then subjected to agarose gel electrophoresis using the Ciba Corning Clinical Electrophoresis System. The agarose gel was stained with Fat Red 7B. In FIG. 30A (top), lane 1 is native LDL, and lanes 2-8 are AAPH-oxidized LDL with 0, 37, 18.5, 9, 4.5, 2 and 1 μM compound 4, respectively. In FIG. 30B (bottom), lane 1 is native LDL, and lanes 2-8 are AAPH-oxidized LDL with 0, 37, 18.5, 9, 4.5, 2 and 1 μM quercetin or Trolox, respectively.

[5] = ABTS radical cation decolorization assay; format: biochemical
Excerpt: We have tested AO activity of G1 (13) using ABTS as a radical source using a previously reported spectroscopic assay. The AO activity of the G1 (13) was compared to those of syringaldehyde, gallic acid, and vitamin C. If the phenolic OH group is the radical scavenging site, the expected AO activity of the G1 (13) should be 4 fold higher than that of syringaldehyde and 1.3 fold higher than that of gallic acid (which has three phenolic OH groups).
ABTS radical cation decolorization assay was used as previously described (Ozgen, et al. J. Agric. Food Chem. 2006, 54, 1151-1157, incorporated herein by reference in its entirety). Like the DPPH assay, this was also a decolorization assay and measured absorbance decrease at 734 nm as the ABTS radical (ABTS•+) is quenched by the antioxidant. The solvent used for the assay was ethanol. ABTS reagent was added to 1.0 mL solvent in a cuvet to bring the absorbance to 0.7. A 10 μL sample of antioxidant was then added, mixed, and the absorbance monitored at 734 nm for 6 min. Antioxidant concentrations were 14.4 μM Trolox, 11.4 μM ascorbic acid, 15.4 μM syringaldehyde, and 3 μM compound 1. The % decrease in absorbance at 6 min was plotted against antioxidant concentrations. The gradient of the line obtained by linear regression for a given antioxidant was divided by that obtained for Trolox to yield Trolox equivalent antioxidant (TEAC) values. All samples were made in ethanol and run in triplicates and at room temperature.

[6] = FRAP assay (reduction of Fe(III) to Fe(II)); format: biochemical; design: Slope of ΔA593 versus concentration: unit not given here; conditions: for Slope of ΔA593 versus concentration: 37° C.
Experimental: The FRAP assay was performed as previously described (Pulido, et al. J. Agric. Food Chem. 2000, 48, 3396-3402, incorporated herein by reference in its entirety). In the FRAP assay, ferric was reduced by the antioxidant to ferrous via electron transfer (Benzie et al., Anal. Biochem. 1996, 239, 70-76, incorporated herein by reference in its entirety). This assay measured the redox potential of an antioxidant which is used as an estimate of antioxidant efficiency and expressed as a FRAP value. […] The compound 1 as well as the other antioxidants was dissolved in methanol. […] Reaction kinetics of the compound 1 and other antioxidants were obtained by plotting the change in slopes at various times and are shown in FIG. 18. […] This time-dependent increase in absorbance was previously reported (Pulido, et al. J. Agric. Food Chem. 2000, 48, 3396-3402, incorporated herein by reference in its entirety) and was especially significant with polyphenolic compounds. […] However, the FRAP value increased with time, reaching 2.5 in 60 min. […] J. Agric. Food Chem. 2000, 48, 3396-3402, incorporated herein by reference in its entirety). […] EC1 values, and therefore ferric reducing ability, were lower at longer reaction times as expected from the kinetic behavior of the antioxidants (Pulido, et al. J. Agric. Food Chem. 2000, 48, 3396-3402, incorporated herein by reference in its entirety).

NCc1ccc(CN)cc1 [4-aminomethylbenzylamine]
quenching of DDPH• ([1]; 40 μM final concentration in cuvet): 6% | % A470 nm [2]: 16%

COc1cc(CN(Cc2ccc(CN(Cc3ccc(O)c(OC)c3)Cc3ccc(O)c(OC)c3)cc2)Cc2ccc(O)c(OC)c2)ccc1O [Compound 2]
protection of linoleic acid from oxidation [2]: about twice weaker than compound 1 | concentration at which some DNA protection was observed [3]: ≥ 45 µM

COc1cc(CN(Cc2ccc(CN(Cc3cc(I)c(O)c(OC)c3)Cc3cc(I)c(O)c(OC)c3)cc2)Cc2cc(I)c(O)c(OC)c2)cc(I)c1O [Compound 3]
protection of LDL from AAPH free radicals (anodic migration) [4]: better LDL protection than compound 2 | protection of linoleic acid from oxidation [2]: about twice weaker than compound 1 | DNA protection at all concentrations used ([3]; 0.35-45 μM): ineffective

COc1cc(C=O)cc(OC)c1O [Syringaldehyde]
# of DDPH• reduced per antioxidant molecule (1/stoichiometry) [1]: 0.33 | Antioxidant Capacity Relative to Trolox, DPPH [1]: 0.18 | DPPH assay, times weaker than Trolox [1]: 5.6 times | DPPH• remaining in one minute ([1]; 50 μM syringaldehyde): 96% | time to reach plateau / steady state with DPPH• ([1]; 50 μM syringaldehyde, 12.5 μM Trolox and ascorbic acid, 5 μM compound 1, methanol, room temperature, 515 nm): approximately 45 min | Antioxidant Capacity Relative to Trolox, ABTS [5]: 0.98 | IC50 ([5]; final concentration in the cuvet, read-out: concentration at which 50% inhibition of ABTS•+ was observed): ~11 µM | Slope of % decrease in absorbance at 6 min versus antioxidant concentration ([5]; linear regression, concentration in μM): 3.9 | TEAC ([5]; slope divided by that of Trolox, % decrease in A734 at 6 min, ethanol): 0.98 | Antioxidant Capacity Relative to Trolox, FRAP 5 min ([6]; 5 min): 2.3 | EC1 (concentration with ferric-TPTZ reducing ability equivalent to 1 mM FeSO4.7H2O) ([6]; 5 min): 194 µM | FRAP value relative to Fe(II) ([6]; 5 min): 5.1 | FRAP value relative to Fe(II) ([6]; 15 min): 6.7 | FRAP value relative to Fe(II) ([6]; 30 min): 8.4 | Antioxidant Capacity Relative to Trolox, FRAP 60 min ([6]; 60 min): 4 and 4.2 | EC1 (concentration with ferric-TPTZ reducing ability equivalent to 1 mM FeSO4.7H2O) ([6]; 60 min): 108 µM | FRAP value relative to Fe(II) ([6]; 60 min): 9.2 | Slope of ΔA593 versus concentration ([6]; Reaction time 5 min): 0.062 | Slope of ΔA593 versus concentration ([6]; Reaction time 15 min): 0.081 | Slope of ΔA593 versus concentration ([6]; Reaction time 30 min): 0.101 | Slope of ΔA593 versus concentration ([6]; Reaction time 60 min): 0.111 | % A470 nm [2]: 12%
